Reference: patent US20150329864A1, “DESIGN OF OLIGONUCLEOTIDE ANALOGS AS THERAPEUTIC AGENTS” (SPRING BANK PHARMACEUTICALS, INC., priority 2010, published 2015)
“Also recorded” adds a separate entry of the source.

Columns and labels:
[1] = Weight change and apparent toxicity in orally treated HBV transgenic mice; assay type: in vivo
Procedure: Compound 6k was evaluated for anti-HBV activity in the transgenic mouse model of HBV infection. Male transgenic mouse infected with HBV, with age ranging from 78 to 108 days were used. Compound 6k was initially evaluated at a single dose of 300 mg/kg, administered daily for 14 days by oral gavage. The compounds were administered in citric acid and adefovir dipivoxil was used as a positive control. A control group which received vehicle was used a negative control. Following the treatment, mice were sacrificed and liver tissue analyzed for HBV DNA using Southern blot analysis. The data was statistically evaluated using Kruskall-Wallis non-parametric ANOVA.
(a) Male and female transgenic mice (founder 1.3.32) were infected with human hepatitis B virus. Following infection, animals were orally administered Compound 6k, or a placebo of 0.05 M citric acid, pH 2.0 once daily for 14 days. Dosage was 300 mg/kg/d for Compound 6k. The positive control, ADV, was administered at 10 mg/kg/d.
Statistical significance is indicated as *P≦0.05, **P≦0.01, ***P≦0.001 compared to placebo vehicle.

HCV = assay: Combination studies against HCV in replicon assays; assay type: cell-based; settings: Hepatitis C virus, read-out: EC50 (uM), single drug
EEEH protein = assay: EEEH expression in woodchucks after sublingual administration; assay type: in vivo; settings: following absorption by the sublingual route
Procedure: Compound 5 was administered by sublingual route to woodchucks, at a dose of […] in Transcutol, and blood was drawn periodically for analysis. Test results are provided in Tables 4 and 5 and FIG. 3 and FIG. 4.

hepatitis B virus (HBV) = assay: Effect of i.p. administration on hepatitis B virus in transgenic mice; assay type: in vivo
Procedure: Compound 5 was evaluated in transgenic mice expressing hepatitis B virus (HBV). […] Its activity was also similar to the adefovir dipivoxil (ADV) anti-HBV activity; however, the two compounds seemed to suppress different HBV DNA species. […] In contrast, Compound 5 appeared to indiscriminately remose all HBV DNA species, including the bands typically left by ADV, which may reflect a different mechanism of action other than classical chain termination. Serum HBe, liver HBs, and HBc were not affected by Compound 5 treatment, which is consistent in transgenic mice with compounds that block viral synthesis “downstream” from mRNA synthesis, such as blockage of polymerase activities. A minimal effective dosage was determined to be between 1.6-0.5 mg/kg/day, which was similar to ADV minimal effective dosage of 1.0 mg/kg/day (Table 8).

macrophages = assay type: cell-based
RIG-I = biological target: T1, RIG-I (Homo sapiens, UniProt O95786); assay: RIG-I translocation on dsRNA, single-molecule PIFE assay; assay type: biochemical
T1 sequence (O95786 1-925): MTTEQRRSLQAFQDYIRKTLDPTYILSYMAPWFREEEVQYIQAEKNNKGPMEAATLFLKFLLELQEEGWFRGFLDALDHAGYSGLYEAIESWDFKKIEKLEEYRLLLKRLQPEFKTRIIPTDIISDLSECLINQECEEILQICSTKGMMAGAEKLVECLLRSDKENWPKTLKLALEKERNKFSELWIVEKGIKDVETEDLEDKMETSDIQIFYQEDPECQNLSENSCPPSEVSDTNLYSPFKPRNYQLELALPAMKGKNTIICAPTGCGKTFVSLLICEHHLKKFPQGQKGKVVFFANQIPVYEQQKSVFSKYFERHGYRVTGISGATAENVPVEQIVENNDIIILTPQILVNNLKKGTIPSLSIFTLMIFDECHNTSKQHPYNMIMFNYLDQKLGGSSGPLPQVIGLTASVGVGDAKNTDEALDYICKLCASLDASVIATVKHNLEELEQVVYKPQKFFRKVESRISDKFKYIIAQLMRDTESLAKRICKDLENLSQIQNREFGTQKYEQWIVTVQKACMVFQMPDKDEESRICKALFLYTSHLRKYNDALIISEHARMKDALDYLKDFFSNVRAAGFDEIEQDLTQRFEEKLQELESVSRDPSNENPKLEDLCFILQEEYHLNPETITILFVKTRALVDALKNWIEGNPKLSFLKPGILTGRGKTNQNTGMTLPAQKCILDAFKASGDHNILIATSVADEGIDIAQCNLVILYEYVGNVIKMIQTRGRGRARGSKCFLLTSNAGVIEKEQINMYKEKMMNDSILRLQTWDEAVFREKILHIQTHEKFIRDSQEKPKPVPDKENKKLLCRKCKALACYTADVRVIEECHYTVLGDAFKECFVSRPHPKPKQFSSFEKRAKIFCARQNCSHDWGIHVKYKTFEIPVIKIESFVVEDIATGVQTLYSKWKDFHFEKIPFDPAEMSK
Procedure: An in vitro single-molecule fluorescence assay termed PIFE (protein induced fluorescence enhancement) was employed to monitor such movement (Myong, S. et al., Science, 323, 1070, 2009).
For quantitation of RIG-I translocation, Single molecule PIFE yields were estimated. Single molecule PIFE yields are obtained from several hundred molecules simultaneously, allowing statistically reliable data collection.
The translocation as above was carried out using different concentrations of nucleotide compound.
A standard dsRNA (25 bp) was used as a main substrate for RIG-I translocation assay. […] The ratio between rapid (stimulated) translocation and slow translocation would be accounted for in the estimation of compound strength. In order to quantify the affinity of the compound to RIG-I or to RNA substrate, various concentrations of the compound (1-100 μM range) were used in the assay. This enabled the calculation of the association/dissociation constant for each compound, which was a useful measure to apply in cell-based evaluation of compound potency.
The same translocation assay was used on dsRNA, which contains […] moiety with and without the compound.

[2] = 100 mg/kg/d i.p. once daily 14 days, group listed with C:E:S vehicle
[3] = 100 mg/kg/d i.p. once daily 14 days, group listed with saline placebo

Structure (SMILES)	% weight change ± sd ([1]; 300 mg/kg/d, oral, once daily 14 days) [%]	apparent toxicity ([1]; high doses employed, oral once daily 14 days)	EC50 (HCV) [µM]	kinetics of induction of the EEEH protein (EEEH protein)	Liver HBV DNA (mean pg viral/μg cellular DNA ± stdev) (hepatitis B virus (HBV); [2])	Liver HBV RNA (mean relative units ± stdev) (hepatitis B virus (HBV); [2]) [relative units]	Liver HBeAg (mean stained cells/100 × field ± stdev) (hepatitis B virus (HBV); [2]) [stained cells/100 × field]	Serum HBV DNA (mean log10 genome equivalents/mL serum ± stdev) (hepatitis B virus (HBV); [2])	Serum HBeAg (mean ng/mL ± stdev) (hepatitis B virus (HBV); [2]) [ng/mL]	Serum HBsAg (mean ng/mL ± stdev) (hepatitis B virus (HBV); [2]) [ng/mL]	Liver HBV DNA (mean pg viral/μg cellular DNA ± stdev) (hepatitis B virus (HBV); [3])	Serum HBV DNA (mean log10 genome equivalents/mL serum ± stdev) (hepatitis B virus (HBV); [3])	effect on liver HBV DNA (hepatitis B virus (HBV); i.p. once daily 14 days, 100 mg/kg/day, saline or cremaphor:ethanol:saline vehicles)	effect on serum HBe, liver HBs, and HBc (hepatitis B virus (HBV); i.p. treatment)	induction of IL-2 (macrophages)	RIG-I translocation on dsRNA (activity in words) (RIG-I; PIFE assay)	proportion of fast RIG-I translocation (RIG-I; concentration increased from 5 μM up to 170 μM)
CO[C@H]1C(OP(=O)(OC[C@H]2O[C@@H](n3cnc4c(N)ncnc43)CC2O)SCOC(=O)OC(C)C)[C@@H](CO)O[C@H]1n1ccc(=O)[nH]c1=O (some centres unmarked) [Compound 6k]	4.3 ± 1.8	no apparent toxicity	1.5 to 2.3	–	–	–	–	–	–	–	–	–	–	–	–	–	–
CO[C@H]1C(OP(=O)(S)OC[C@H]2O[C@@H](n3cnc4c(N)ncnc43)CC2O)[C@@H](CO)O[C@H]1n1ccc(=O)[nH]c1=O (some centres unmarked) [Compound 5, 3-dApsU2′-OMe]	–	–	–	very rapid	1.7 ± 1.5 (9) pg viral/μg cellular DNA	1.7 ± 0.3	24 ± 15	5.4 ± 0.6 (7) log10 genome equivalents/mL serum	1241 ± 279	28 ± 15	0.3 ± 0.4 (8) pg viral/μg cellular DNA	5.0 ± 0.3 (8) log10 genome equivalents/mL serum	significantly reduced liver HBV DNA	not affected	showed induction of IL-2	rapid translocation on dsRNA in a dose-dependent manner; also recorded: strong activators of RIG-I translocation	corresponding increase in the proportion of fast translocation
